{"source": "patent US20220280526A1", "about": "“AGENT FOR THE TREATMENT OF PSORIASIS” (EBERHARD KARLS UNIVERSITAET TUEBINGEN MEDIZINISCHE FAKULTAET, priority 2019, published 2022)", "key": {"[1]": {"test_system": "IκBζ (NFKBIZ) expression", "experiment": "IκBζ expression in cytokine-stimulated primary human keratinocytes (immunoblot, qPCR)", "type": "cell-based", "details": "1 h cytokine, abemaciclib 16 μM, palbociclib 50 μM", "protocol": "Gene expression analyses were performed as described. Relative gene expression was analyzed using self-designed primers ordered at Metabion (not shown). Relative mRNA levels were calculated by normalization to the human reference gene RPL37A or the mouse reference gene Actin using the 2-ΔΔCt method."}, "[2]": {"test_system": "STAT3", "experiment": "STAT3 phosphorylation in primary human keratinocytes (immunoblot)", "type": "cell-based", "details": "after stimulation with IL-36α", "source_text": "HaCaT cells were maintained in DMEM with 10% FCS and antibiotics. Human primary keratinocytes were freshly isolated from foreskin and maintained in CnT-07S medium with gentamycin (CELLnTEC). Recombinant human IL-36α (aa 6-158) and mouse IL-36α (aa 6-160) were purchased from R&D Systems. Recombinant IL-17A (11340174), TNFα (11343013) and IL-1β (11340013) were ordered from Immunotools. Flagellin (vac-fla) and poly I:C (vac-pic) were purchased from Invivogen. In cell culture experiments, the cytokines were used at the following concentrations, as described previously: IL-36α (100 ng/mL), IL-17A (200 ng/mL), TNFα (10 ng/mL) and IL-1β (100 ng/mL). Flagellin was applied at 10 ng/mL and poly(I:C) was added at a final concentration of 100 ng/mL. […] When indicated, cells were starved for 2 h prior to cytokine treatment, by removing cell culture supplements from the growth medium.\nWestern blot analysis was performed as described before. […]"}, "[3]": {"test_system": "IMQ-induced psoriasis-like skin inflammation", "experiment": "Imiquimod (IMQ)-mediated psoriasis mouse model, topical treatment of ears", "type": "in vivo, C57BL/6 mice", "method": "Experiments were conducted in accordance with the German law guidelines of animal care. […] At day 7, mice were sacrificed and analysed. For IL-36α-mediated psoriasis induction, ears of male C57BL/6 mice (8-12 weeks old) were treated by intradermal injections using 1 μg murine IL-36α (aa 8-160, R&D) or PBS control for 5 consecutive days. […] Inhibitors were topically applicated 6 h before intradermal injections of IL-36α or PBS were applied. Mice were sacrificed and analysed at day 6.\nSample preparation was performed as described. The following anti-mouse antibodies from BioLegend were used: anti-CD45 FITC (103107), anti-CD11 b PacificBlue (101223), anti-Ly6G PE (127607), anti-F4/80 APC (123115), anti-CD11c Pacific Blue (117322), anti-MHC-II APC (107613), anti-CD172α PE (144011) and anti-Silec-H PE (129605). Anti-PDCA-1 APC (17-2092-80) and anti-αβTCR PE (HM3628) were purchased from Invitrogen, and anti-γδ-TCR APC (17-5711-82) from Sigma. Data was acquired on a LSRII flow cytometer (Becton Dickson).\nEar sections from mice were fixed in 10% formalin (Carl Roth) and subsequently embedded in paraffin. 5-μm sections were prepared and incubated with the following antibodies from Cell Signaling: pSTAT3 (9145), pRB (8516) and H3K27me3 (9733). For staining of human skin samples, EZH2 antibody (Cell Signaling, 5246) was used. Antigen retrieval was performed in 1 mM EDTA pH 8.0 for pSTAT3, and 10 mM citrate buffer pH 6.0+0.5% Triton X-100 for EZH2, H3K27me3 and pRB. After incubation with peroxidase-coupled secondary antibodies, sections were stained with DAB substrate."}, "[4]": {"test_system": "IL-36-mediated psoriasis-like dermatitis", "experiment": "IL-36α-triggered psoriasis-like dermatitis mouse model, topical treatment of ears", "type": "in vivo, C57BL/6 mice", "method": "Experiments were conducted in accordance with the German law guidelines of animal care. […] At day 7, mice were sacrificed and analysed. For IL-36α-mediated psoriasis induction, ears of male C57BL/6 mice (8-12 weeks old) were treated by intradermal injections using 1 μg murine IL-36α (aa 8-160, R&D) or PBS control for 5 consecutive days. […] Inhibitors were topically applicated 6 h before intradermal injections of IL-36α or PBS were applied. Mice were sacrificed and analysed at day 6. Ear sections from mice were fixed in 10% formalin (Carl Roth) and subsequently embedded in paraffin. 5-μm sections were prepared and incubated with the following antibodies from Cell Signaling: pSTAT3 (9145), pRB (8516) and H3K27me3 (9733). For staining of human skin samples, EZH2 antibody (Cell Signaling, 5246) was used. Antigen retrieval was performed in 1 mM EDTA pH 8.0 for pSTAT3, and 10 mM citrate buffer pH 6.0+0.5% Triton X-100 for EZH2, H3K27me3 and pRB. After incubation with peroxidase-coupled secondary antibodies, sections were stained with DAB substrate."}, "[5]": {"details": "flow cytometry of ears at day 7"}}, "note": "Entries after “also recorded” stand apart in the source; their conditions may differ."}
{"substance": "Abemaciclib mesylate", "values": [{"measurement": "IL-36α- or IL-17A/TNFα-mediated induction of IκBζ expression", "setting": "[1]", "value": "completely blocked; also recorded: abolished"}, {"measurement": "phosphorylation of STAT3 at threonine 727 (T727)", "setting": "[2]", "value": "remained unaffected"}, {"measurement": "phosphorylation of STAT3 at tyrosine 705 (Y705)", "setting": "[2]", "value": "completely absent"}, {"measurement": "pRB expression in the epidermis (CDK4/6 inhibition)", "setting": "[3]; ear skin sections of treated mice", "value": "loss of pRB"}, {"measurement": "immune cell infiltration (neutrophils, macrophages, T cells)", "setting": "[3]; [5]", "value": "significantly suppressed"}, {"measurement": "number of infiltrating plasmacytoid (pDC) and myeloid dendritic cells (mDC)", "setting": "[3]; [5]", "value": "significantly suppressed"}, {"measurement": "IκBζ expression, phosphorylation of EZH2 at T345 and of STAT3 at Y705 in the skin", "setting": "[3]; immunoblot of skin tissue at day 7", "value": "completely abrogated"}, {"measurement": "expression of IκBζ target genes (Cxcl2, Cxcl5) and cytokines (Il17a, Il23a) in skin", "setting": "[3]; qPCR of skin samples at day 7", "value": "significantly downregulated"}, {"measurement": "psoriasis-like skin inflammation (ear thickening, keratinocyte hyperproliferation, immune cell infiltration)", "setting": "[3]; topical daily for 6 days with IMQ, abemaciclib 0.02 mg, CPI-169 0.05 mg per ear/day, analysed day 7", "value": "completely suppressed"}, {"measurement": "skin penetration of topically applied inhibitor", "setting": "[3]; topical on mouse ear skin", "value": "effectively penetrated"}, {"measurement": "IL-36-mediated expression of IκBζ, phosphorylation of EZH2 at T345 and activation of STAT3 (pSTAT3 Y705) in skin", "setting": "[4]; immunoblot of ear skin at day 6", "value": "suppressed"}, {"measurement": "keratinocyte hyperproliferation and immune cell infiltration", "setting": "[4]; intradermal IL-36α 5 days, topical inhibitor, abemaciclib 0.02 mg, CPI-169 0.05 mg, day 6", "value": "effectively blocked"}, {"measurement": "IκBζ target gene expression and key cytokine expression (Il17a, Il23a)", "setting": "[4]; qPCR of skin samples", "value": "effectively blocked"}]}
